In the METLIN SMRT retention time set (Domingo-Almenara et al. 2019):

Assay: gradient 5% acetonitrile 3 min, to 50% in 2 min, to 85% in 15 min, held 3 min, 100 µL/min
Settings: column: Zorbax Extend-C18 2.1 x 50 mm; eluents: water / acetonitrile, 0.1% formic acid
Summary of the method: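 Data were gathered over 3 months by HPLC coupled to a quadrupole time-of-flight mass spectrometer, operated in positive and negative ionization mode. Mixtures of ~100 pure standards ran on a Zorbax Extend-C18 column (2.1 × 50 mm, 1.8 μm) at 100 μL/min, with water and acetonitrile each containing 0.1% formic acid and dead and dwell volumes of 40 μL and 900 μL. Retention time was read from adduct peaks picked by computer and checked manually.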

Row | Compound | RP-LC retention time
1 | CC(C)CNC(=O)Cc1cn(C)c2ncccc12 | 595 s
2 | Cc1cc(C)n(CCC(=O)N2CC[C@@H]3CN(S(C)(=O)=O)[C@@H]3C2)n1 | 594 s
3 | CN(CC1(C)CCOCC1)C(=O)COc1ccc(F)cc1 | 770 s
4 | COc1cccc(Cn2cc(C(=O)c3cc(C)ccc3C)c(=O)c3ccc(C)nc32)c1 | 1060 s
5 | CCOc1ccc(CN2C(=O)C3(CCOCC3)CC2c2nnnn2C(C)(C)C)cc1OC (configuration not stated) | 754 s
6 | CCCn1c(C2CCN(C(=O)c3ccc(Br)o3)C2)nc2cccnc21 (configuration not stated) | 735 s
7 | COc1ccc(-n2c(=O)n(C)c(=O)c3cc(C(=O)Nc4ccc5c(c4)OCO5)cnc32)cc1 | 841 s
8 | Nc1o[nH]c(=O)c1C1CCCCC1 | 680 s
9 | CN1C(=O)CC[C@]2(C(=O)N3CCN(c4ccc(F)cc4)CC3)CCCC[C@@H]12 | 723 s
10 | CCOCCCNCc1ccc(-c2ccc(Br)cc2)o1 | 705 s
11 | COc1ccc2nc(C)cc(NCCCCCCCCCNc3cc(C)nc4ccc(OC)cc34)c2c1 | 670 s
12 | Cc1cc(C)c(S(=O)(=O)NC2CCCN(c3ccc(=O)n(C)n3)C2)c(C)c1 (configuration not stated) | 844 s
13 | Cc1nc(CCNC(=O)C2CCN(S(=O)(=O)c3ccc(F)c(Cl)c3)CC2)cs1 | 762 s
14 | O=C(Nc1cc(F)cc(F)c1)C1CCCN(c2ccnc(-c3ccc(F)cc3)n2)C1 (configuration not stated) | 761 s
15 | O=C(CN1C(=O)CCc2cc(Br)ccc21)Nc1ccc2c(c1)OCO2 | 792 s
16 | O=S(=O)(NCc1ccc(F)cc1)c1ccccc1-c1nc(-c2ccccc2)no1 | 1160 s
17 | COc1ccc(-c2cn3c(CC(=O)Nc4cc(C)on4)csc3n2)cc1OC | 664 s
18 | Cc1sc(-c2cc(C(F)(F)F)[nH]n2)cc1S(=O)(=O)N1CCN(c2ccccc2)CC1 | 1110 s
19 | O=C1CCN(C(=O)C2CCN(C(=O)c3ccoc3)CC2)CCCCCCN1 | 612 s
20 | O=c1c2sccc2n(Cc2nc(-c3ccc(Cl)c(F)c3)no2)c(=O)n1Cc1ccccc1 | 1210 s
21 | O=C(NC(c1ccccc1)c1nnc(N2CCCCC2)o1)C1CCCC1 (configuration not stated) | 836 s
22 | CC1Oc2ccc(S(=O)(=O)N3CCC(C(=O)Nc4ccc(F)c(Cl)c4)CC3)cc2NC1=O (configuration not stated) | 902 s
23 | CCC(C)NC(=O)N1CCNC(=O)C1 (configuration not stated) | 557 s

Row | Compound | RP-LC retention time
24 | CCC(=O)N1CCc2cc(N3CC(C(=O)N4CCC5(CC4)OCCO5)CC3=O)ccc21 (configuration not stated) | 654 s
25 | CC(C)NC(=O)c1ccc2ncnc(N3CCCCC3)c2c1 | 586 s
26 | CCCNC(=O)c1cc2sc(C)c(CN3CCCCC3)c2[nH]1 | 629 s
27 | Cc1ccc(-c2coc(-c3ccc(NC(=O)NCc4ccc(F)cc4)cc3)n2)c(C)c1 | 1180 s
28 | c1ccc(-c2nc(-c3ccc(-n4ccnc4)nc3)no2)cc1 | 720 s
29 | COc1ccc(S(=O)(=O)N2CCc3nn(CC4CC4)c(=O)n3CC2)cc1 | 744 s
30 | CCc1nc2cc(-c3noc(COc4ccc(OC)cc4)n3)ccc2o1 | 1070 s
31 | CN(C)CCNc1nnc(-c2nc(-c3ccc(F)cc3)no2)c2ccccc12 | 687 s
32 | O=C(Nc1cccc(C(F)(F)F)c1)C1CCN(c2cc(-n3ccnc3)ncn2)CC1 | 625 s
33 | CCc1ccccc1NC(=O)C1CCN(S(=O)(=O)c2ccc3c(c2)sc(=O)n3CC)CC1 | 932 s
34 | Clc1ccccc1-c1nnc(-c2ccc(-n3ccnc3)nc2)o1 | 658 s
35 | COC(=O)C1=CN(c2cccc(C)c2C)c2ccccc2S1(=O)=O | 916 s
36 | CCc1sc(NC(=O)c2sc(C)nc2C)nc1-c1ccc(Br)cc1 | 1160 s
37 | CC(NC(=O)c1ccco1)c1nc2ccccc2n1CC(=O)N1CCCCC1 (configuration not stated) | 627 s
38 | COc1ccc(Cc2nnc3sc(-c4ccc(N(C)C)cc4)nn23)cc1 | 1090 s
39 | Cc1ccc(NC(=O)Cn2nc3c(N4CCSCC4)nccn3c2=O)cc1C | 839 s
40 | Cc1cccc(Cn2c(=O)n(CCNC(=O)C(C)C)c3ncccc32)c1 | 769 s
41 | O=C1CC(c2nc(-c3ccc(Br)cc3)no2)CN1c1ccccc1 (configuration not stated) | 1080 s
42 | Cc1ccc(-c2ccc(N3CCCC(C(=O)NCCCOC(C)C)C3)nn2)cc1C (configuration not stated) | 708 s
43 | O=C(Cn1cnc(-c2cccs2)cc1=O)Nc1ccc(-n2cnnn2)cc1 | 660 s
44 | CCC(CC)C(=O)N1CCCC(Cn2c(C3CC3)nc3cccnc32)C1 (configuration not stated) | 682 s
45 | CCn1ccc(C(=O)N2CCn3c(nnc3-c3ccccc3)C2)n1 | 604 s
46 | Cc1cc(OCC(=O)NCCn2nc(-c3cccnc3)ccc2=O)ccc1Cl | 617 s

Row | Compound | RP-LC retention time
47 | CC1=C(c2cccc(Cl)c2)S(=O)(=O)N=C1N1CCCN(C(=O)NC(C)(C)C)CC1 | 883 s
48 | COC(=O)c1ccc(N2Cc3cc(Cl)ccc3OCC2=O)cc1 | 877 s
49 | Cn1c(C2CCN(S(C)(=O)=O)CC2)nn(Cc2ccc(Cl)c(Cl)c2)c1=O | 739 s
50 | Cc1cccc(-c2nc(Cn3nnc(-c4nc(-c5cccc(Cl)c5)no4)c3C)c(C)o2)c1 | 1300 s
51 | Cc1ccc(S(=O)(=O)Nc2cccc(-c3cn4cccc(C)c4n3)c2)c(C)c1 | 703 s
52 | CCOc1ccccc1C(=O)N1CCc2[nH]cnc2C12CCCCC2 | 641 s
53 | O=C(NCc1cccs1)c1nnc(-c2ccc(S(=O)(=O)N3CCCCC3)cc2)o1 | 939 s
54 | CNC(=O)C1CCCN(c2nc3ncn(CC(=O)Nc4cc(F)ccc4F)c(=O)c3s2)C1 (configuration not stated) | 641 s
55 | Cc1ccc(Nc2nc3ccncc3n(Cc3ccccc3)c2=O)cc1 | 778 s
56 | CCC(C)NC(=O)c1ccc2c(c1)N(C)C(=O)CS2 (configuration not stated) | 734 s
57 | COc1ccc(C2Cn3cnc(C(=O)N4CCC(C(=O)Nc5cc(C)cc(C)c5)CC4)c3CO2)cc1 (configuration not stated) | 751 s
58 | Cc1ccc(N2C=C(C(=O)N3CCOCC3)S(=O)(=O)c3ccc(F)cc32)cc1C | 887 s
59 | O=C(Cc1ccccc1Cl)N1CCN(c2cc(-c3cccs3)[nH]n2)CC1 | 819 s
60 | COc1ccc(NC(=O)CSc2nnc3c4cc(-c5ccc(C)c(C)c5)nn4ccn23)cc1Cl | 997 s
61 | COc1ccc(NC(=O)Cn2nc(N3CCCC(C)C3)c3ccccc3c2=O)c(OC)c1 (configuration not stated) | 1100 s
62 | CNC(=O)N1CCCN(C2=NS(=O)(=O)C(c3ccc(F)cc3)=C2C)CC1 | 681 s
63 | COC(=O)C(C)NC(=O)N1CCN(c2nc3ccccc3n3cccc23)CC1 (configuration not stated) | 605 s
64 | O=C1OC2CC1N(C(=O)C1CC=CCC1)C2 (configuration not stated) | 622 s
65 | N#CCCSc1nnc2sc3ccccc3n12 | 828 s
66 | O=S(=O)(c1cccc(Br)c1)N1CCc2nc(-c3ccc(F)cc3)ncc2C1 | 1160 s
67 | CC(=O)N1CCc2cc(N3CC(C(=O)Nc4ccccc4Cl)CC3=O)ccc21 (configuration not stated) | 701 s
